Activity calls are given as the source filed them. The calls are words filed in the database; no cut-off is given here.

Common to all, as to type: cell-based
The target of data set [1] is T1, Progesterone receptor (Homo sapiens, UniProt P06401).
T1 sequence (P06401 whole entry): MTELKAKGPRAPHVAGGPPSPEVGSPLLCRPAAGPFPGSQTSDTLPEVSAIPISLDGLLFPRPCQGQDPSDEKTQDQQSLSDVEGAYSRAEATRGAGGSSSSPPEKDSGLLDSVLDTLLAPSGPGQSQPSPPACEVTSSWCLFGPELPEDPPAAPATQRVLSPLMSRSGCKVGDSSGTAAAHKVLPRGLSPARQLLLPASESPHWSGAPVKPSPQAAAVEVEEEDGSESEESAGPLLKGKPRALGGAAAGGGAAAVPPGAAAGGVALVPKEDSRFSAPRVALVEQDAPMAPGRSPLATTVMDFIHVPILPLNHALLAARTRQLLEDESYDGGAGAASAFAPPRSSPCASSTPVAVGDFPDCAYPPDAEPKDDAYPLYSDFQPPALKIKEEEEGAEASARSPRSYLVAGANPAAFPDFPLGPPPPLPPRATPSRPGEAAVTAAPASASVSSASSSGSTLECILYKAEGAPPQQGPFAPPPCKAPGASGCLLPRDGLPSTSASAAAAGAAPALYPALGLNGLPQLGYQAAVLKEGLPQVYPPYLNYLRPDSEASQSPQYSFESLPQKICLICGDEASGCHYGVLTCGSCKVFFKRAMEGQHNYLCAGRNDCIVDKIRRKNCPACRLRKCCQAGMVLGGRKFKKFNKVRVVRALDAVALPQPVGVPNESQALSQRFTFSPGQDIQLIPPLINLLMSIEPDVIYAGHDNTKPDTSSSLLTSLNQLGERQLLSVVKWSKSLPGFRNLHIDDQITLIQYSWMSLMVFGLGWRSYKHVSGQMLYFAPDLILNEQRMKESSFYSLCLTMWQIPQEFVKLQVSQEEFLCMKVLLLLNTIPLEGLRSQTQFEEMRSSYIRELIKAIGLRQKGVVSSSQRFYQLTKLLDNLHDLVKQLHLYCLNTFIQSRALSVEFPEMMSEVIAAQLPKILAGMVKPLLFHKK
The experiment in a line: Antagonist activity at PR in human T47D cells assessed as inhibition of progesterone-induced response after 24 hrs by alkaline phosphatase assay.

Data set [2] addresses T2, Glucocorticoid receptor (Homo sapiens) (UniProt P04150).
T2 sequence (whole entry): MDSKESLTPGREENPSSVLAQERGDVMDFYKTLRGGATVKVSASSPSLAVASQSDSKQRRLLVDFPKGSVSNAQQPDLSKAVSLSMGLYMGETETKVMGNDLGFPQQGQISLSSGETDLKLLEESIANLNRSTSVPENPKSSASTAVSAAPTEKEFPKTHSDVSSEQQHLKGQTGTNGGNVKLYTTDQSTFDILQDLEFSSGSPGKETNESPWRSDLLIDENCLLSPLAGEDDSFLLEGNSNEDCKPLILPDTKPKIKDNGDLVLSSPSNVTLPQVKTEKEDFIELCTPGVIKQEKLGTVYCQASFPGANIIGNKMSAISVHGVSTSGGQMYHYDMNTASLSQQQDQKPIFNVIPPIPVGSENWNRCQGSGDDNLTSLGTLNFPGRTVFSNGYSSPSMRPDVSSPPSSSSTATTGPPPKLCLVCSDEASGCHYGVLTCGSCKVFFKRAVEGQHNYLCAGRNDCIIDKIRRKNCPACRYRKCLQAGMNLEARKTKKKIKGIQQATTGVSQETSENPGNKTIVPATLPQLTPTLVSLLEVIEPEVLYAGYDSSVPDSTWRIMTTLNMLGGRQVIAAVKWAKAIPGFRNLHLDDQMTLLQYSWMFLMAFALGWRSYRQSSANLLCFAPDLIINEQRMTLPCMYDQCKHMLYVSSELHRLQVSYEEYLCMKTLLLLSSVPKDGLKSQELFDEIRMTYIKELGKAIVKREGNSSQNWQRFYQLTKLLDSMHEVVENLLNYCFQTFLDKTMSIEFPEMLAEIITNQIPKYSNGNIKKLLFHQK
The experiment in a line: Transrepression of human GRalpha expressed in HEK293 cells co-expressing pGL4.32 assessed as inhibition of TNFalpha-stimulated NF-kB activity at 30 uM preincubated for 4 hrs followed by TNFalpha addition measured after 3 hrs by luciferase reporter gene assay relative to control.

For data set [3], the target named is T3, Androgen receptor (Homo sapiens) (UniProt P10275).
T3 sequence (whole entry): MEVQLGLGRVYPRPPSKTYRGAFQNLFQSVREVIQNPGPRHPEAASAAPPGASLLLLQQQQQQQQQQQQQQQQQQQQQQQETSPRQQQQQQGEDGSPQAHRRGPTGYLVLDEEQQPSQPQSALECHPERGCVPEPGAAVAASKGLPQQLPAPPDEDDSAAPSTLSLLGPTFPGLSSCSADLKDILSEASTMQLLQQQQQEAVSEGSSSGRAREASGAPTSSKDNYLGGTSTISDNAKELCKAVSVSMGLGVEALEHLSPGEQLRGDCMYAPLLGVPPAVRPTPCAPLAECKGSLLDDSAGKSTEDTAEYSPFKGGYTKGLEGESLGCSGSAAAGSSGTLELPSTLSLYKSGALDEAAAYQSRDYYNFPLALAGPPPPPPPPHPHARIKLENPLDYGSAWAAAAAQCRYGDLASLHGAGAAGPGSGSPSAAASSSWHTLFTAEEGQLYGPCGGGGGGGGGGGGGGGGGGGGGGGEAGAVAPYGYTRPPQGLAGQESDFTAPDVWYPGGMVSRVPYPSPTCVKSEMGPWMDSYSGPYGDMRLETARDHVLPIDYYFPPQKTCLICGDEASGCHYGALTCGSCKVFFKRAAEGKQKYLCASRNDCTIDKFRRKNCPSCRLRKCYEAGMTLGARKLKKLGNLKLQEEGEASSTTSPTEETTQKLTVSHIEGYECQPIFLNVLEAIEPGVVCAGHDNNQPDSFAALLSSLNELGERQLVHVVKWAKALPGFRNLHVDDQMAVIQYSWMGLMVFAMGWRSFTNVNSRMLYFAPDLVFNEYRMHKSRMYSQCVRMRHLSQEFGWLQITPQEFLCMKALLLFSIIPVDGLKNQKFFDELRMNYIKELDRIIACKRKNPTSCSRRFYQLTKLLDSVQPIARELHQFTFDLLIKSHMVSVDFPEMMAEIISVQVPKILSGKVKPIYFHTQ
As to the kind of experiment: Antagonist activity at human AR expressed in HEK293 cells at 30 uM after 24 hrs by luciferase reporter gene assay.

The target in data set [4] is Estrogen receptor beta (Homo sapiens) (UniProt Q92731). The experiment in a line: Antagonist activity at human GAL4-fused ERbeta LBD expressed in HEK293 cells at 30 uM after 24 hrs by luciferase reporter gene assay.
In data set [5] the target is T4, Glucocorticoid receptor (Homo sapiens, UniProt P04150).
T4 sequence (P04150 whole entry): T2 sequence (whole entry)
The experiment in a line: Transactivation of human GRalpha expressed in HEK293 cells after 24 hrs by luciferase reporter gene assay. Conditions: hek293, 24 h. On the technique in general: In a reporter assay the amount or activity of a reporter protein is the signal.

Data set [6] deals with T5, Estrogen receptor (Homo sapiens) (UniProt P03372).
T5 sequence (whole entry): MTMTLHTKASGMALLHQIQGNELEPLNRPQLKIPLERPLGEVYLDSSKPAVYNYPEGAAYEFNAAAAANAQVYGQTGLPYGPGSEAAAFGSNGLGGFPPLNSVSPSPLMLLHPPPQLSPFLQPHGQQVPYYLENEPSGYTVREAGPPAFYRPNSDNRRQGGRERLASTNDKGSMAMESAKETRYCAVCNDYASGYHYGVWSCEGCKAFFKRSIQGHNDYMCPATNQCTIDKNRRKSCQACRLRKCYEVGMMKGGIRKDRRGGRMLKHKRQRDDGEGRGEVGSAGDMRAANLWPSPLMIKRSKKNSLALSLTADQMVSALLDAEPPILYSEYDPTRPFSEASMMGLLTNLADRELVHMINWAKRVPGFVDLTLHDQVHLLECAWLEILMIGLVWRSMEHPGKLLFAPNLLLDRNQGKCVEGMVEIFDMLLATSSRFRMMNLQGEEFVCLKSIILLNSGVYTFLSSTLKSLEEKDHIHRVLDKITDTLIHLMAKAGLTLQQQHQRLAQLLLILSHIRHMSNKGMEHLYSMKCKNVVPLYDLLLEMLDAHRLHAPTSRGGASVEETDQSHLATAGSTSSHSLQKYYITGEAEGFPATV
The experiment in a line: Antagonist activity at human GAL4-fused ERalpha LBD expressed in HEK293 cells at 30 uM after 24 hrs by luciferase reporter gene assay.

The target of data set [7] is T4, Glucocorticoid receptor. As to the kind of experiment: Antagonist activity at human GRalpha expressed in HEK293 cells assessed as inhibition of dexamethasone-induced response after 24 hrs by luciferase reporter gene assay.

Sequence of Estrogen receptor beta (Homo sapiens) (Q92731 whole entry, the tested form may be a part): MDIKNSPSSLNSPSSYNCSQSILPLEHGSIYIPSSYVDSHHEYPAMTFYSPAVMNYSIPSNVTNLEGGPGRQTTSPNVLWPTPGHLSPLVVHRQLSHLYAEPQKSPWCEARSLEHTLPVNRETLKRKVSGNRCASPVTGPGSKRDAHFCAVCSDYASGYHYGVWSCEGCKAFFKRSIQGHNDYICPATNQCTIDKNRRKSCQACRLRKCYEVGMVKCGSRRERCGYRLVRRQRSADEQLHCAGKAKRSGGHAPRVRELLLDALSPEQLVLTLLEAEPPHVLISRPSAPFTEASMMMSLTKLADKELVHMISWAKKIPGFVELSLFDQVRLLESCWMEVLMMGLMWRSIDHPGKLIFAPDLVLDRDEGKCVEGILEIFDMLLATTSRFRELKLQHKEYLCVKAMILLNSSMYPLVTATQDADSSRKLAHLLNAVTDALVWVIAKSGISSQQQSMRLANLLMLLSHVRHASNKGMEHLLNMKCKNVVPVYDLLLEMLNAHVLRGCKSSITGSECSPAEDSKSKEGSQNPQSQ

Take `N#Cc1ccc(S(=O)(=O)N(Cc2ccccc2)c2ccc(Oc3ccccc3)cc2)cc1`: the IC50 stood at 8 µM in data set [1] and 1430 nM in data set [7]. Also, the inhibition result in data set [2], in data set [3], in data set [4] and in data set [6] was “inactive” throughout. Further, the Activity entry in data set [5] is given as “Not Active”.

A word on the IC50: it is the point on the concentration scale where inhibition reaches its midpoint.

The record behind these values is ChEMBL document CHEMBL4033684, “Development of nonsteroidal glucocorticoid receptor modulators based on N-benzyl-N-(4-phenoxyphenyl)benzenesulfonamide scaffold” (Bioorg Med Chem, 2017).
